According to patent EP0349354A1, “Peptides PF10 to PF19 from a retro virus HIV, method for the synthesis of these peptides and their use, particularly in diagnostics” (INSTITUT PASTEUR, priority 1988, dated 1990):

Columns and labels:
[1] = tested on: anticorps anti-protéine F; test: Western blot test on peptide spots with sera of HIV-1 infected patients; assay type: binding, humain; design: key to réaction avec sérum CHA 1/300, 10µl / réaction avec sérum LOM 1/100, 10µl / réaction avec sérum LOM 1/100, 5µl / réaction avec sérum CHA 1/300, 5µl / réaction avec sérum CHA 1/300, 2µl / réaction avec sérum CHA 1/300, 1µl / réaction avec sérum 1545 1/200, 10µl: ++ signifiant une réaction plus marquée
Method: Pour les besoins du test, les différents peptides PF16, PF19, PF13, PF17 utilisés sont dilués à une concentration de 2 mg/ml.
Sur une bande de papier BIORAD pour transblot, on dépose différents spots : 1µl, 2µl, 5µl, 10µl.
Après séchage on pratique un test Western Blot classique en utilisant comme anticorps des sérums de patients infectés par le virus HIV-1, positifs pour la protéine F, à des dilutions variant de 1/100 à 1/300.
Les peptides testés permettent d'aboutir aux résultats résumés dans le tableau 2 avec trois sérums différents anti-F ++ (++ signifiant une réaction plus marquée).

anticorps anti-nef = test: ELISA for detection of anti-nef antibodies on coated peptides or nef; assay type: binding, humain; details: 500 ng coated per well; for intensité de l'immunoréactivité (OD), Serum 1: Serum 1, anti-nef positive; for intensité de l'immunoréactivité (OD), Serum 2: Serum 2, anti-nef positive; for intensité de l'immunoréactivité (OD), Serum 3: Serum 3, anti-nef positive; for intensité de l'immunoréactivité (OD), Serum 4: Serum 4, anti-nef positive; for intensité de l'immunoréactivité (OD), Serum 5: Serum 5, anti-nef positive; for intensité de l'immunoréactivité (OD), Serum 6: Serum 6, anti-nef positive; for intensité de l'immunoréactivité (OD), Serum 7: Serum 7, anti-nef positive; for intensité de l'immunoréactivité (OD), Serum 8: Serum 8, anti-nef positive; for intensité de l'immunoréactivité (OD), Serum 9: Serum 9, anti-nef positive; for intensité de l'immunoréactivité (OD), Serum 10: Serum 10, anti-nef positive; for intensité de l'immunoréactivité (OD), Serum 11: Serum 11, anti-nef positive; for intensité de l'immunoréactivité (OD), Serum 12: Serum 12, anti-nef positive; for intensité de l'immunoréactivité (OD), Serum 13: Serum 13, anti-nef positive; for intensité de l'immunoréactivité (OD), Serum 14: Serum 14, anti-nef positive; for intensité de l'immunoréactivité (OD), Serum 15: Serum 15, anti-nef positive; for intensité de l'immunoréactivité (OD), Serum 16: Serum 16, anti-nef positive; for intensité de l'immunoréactivité (OD), Serum 17: Serum 17, anti-nef positive; for intensité de l'immunoréactivité (OD), Serum 18: Serum 18, anti-nef positive; for intensité de l'immunoréactivité (OD), Serum 19: Serum 19, anti-nef positive; for intensité de l'immunoréactivité (OD), Serum 20: Serum 20, anti-nef positive; for intensité de l'immunoréactivité (OD), Serum 21: Serum 21, anti-nef positive; for intensité de l'immunoréactivité (OD), Serum 22: Serum 22, anti-nef positive; for intensité de l'immunoréactivité (OD), Serum 23: Serum 23, anti-nef positive; for intensité de l'immunoréactivité (OD), Serum 24: Serum 24, anti-nef positive; for intensité de l'immunoréactivité (OD), Serum 25: Serum 25, anti-nef positive; for intensité de l'immunoréactivité (OD), Serum 26: Serum 26, anti-nef positive; for intensité de l'immunoréactivité (OD), Serum 27: Serum 27, anti-nef positive; for intensité de l'immunoréactivité (OD), Serum 28: Serum 28, anti-nef positive; for intensité de l'immunoréactivité (OD), Serum 29: Serum 29, anti-nef positive; for intensité de l'immunoréactivité (OD), Serum 30: Serum 30, anti-nef positive; for intensité de l'immunoréactivité (OD), Serum 31: Serum 31, anti-nef positive; for intensité de l'immunoréactivité (OD), Serum 32: Serum 32, anti-nef negative control serum; for intensité de l'immunoréactivité (OD), Serum 33: Serum 33, anti-nef negative control serum
Method: Des plaques de microtitration à 96 puits ont été recouvertes une nuit avec 500 ng de protéine nef bactérienne, à 37°C ou avec 500 ng de peptides synthétiques par puits dans 50µl de PBS à pH 7,4. Après saturation avec 400 µl de PBS pH 7,4, contenant 5% de caséine, durant 1 heure à 37°C et lavage avec PBS à pH 7,4, 0,5% de BSA, 0,01% tween, 50 µl de sérums à différentes dilutions ont été ajoutés pendant 2 heures à 37°C. Après le rinçage, 50µl de complexes d'IgG de souris anti-humaine-(H + L)-peroxydase 1:1000 ont été incubés pendant 1 heure à 37°C. Après un nouveau rinçage, 100µl de OPD ont été ajoutés pendant 30mn à température ambiante dans l'obscurité. La réaction de l'enzyme a été arrêtée par addition de 50µl d'acide sulfurique 4N et la densité optique des plaques a été lue à 492 nm/620 nm. Les plaques recouvertes avec la caséine ont été utilisées comme contrôle négatif.
En vue d'étudier la possibilité d'utiliser des peptides synthétiques en tant qu'antigènes pour la détection d'anticorps anti-nef chez des patients infectés par HIV, 8 peptides synthétiques couvrant la totalité de la séquence de la protéine nef de HIV-1 (figure 4) ont été utilisés dans un test ELISA avec 31 sérums anti-nef positifs et 2 sérums anti-nef négatifs utilisés comme contrôle. Les recombinants nef ont été utilisés comme contrôle positif dans les tests ELISA et la caséine a été utilisée comme contrôle négatif. Les résultats de ces expériences sont donnés dans le tableau 4 qui illustre l'essai suivant: Essai ELISA sur 31 sérums anti-nef-positifs et 2 sérums anti-nef- négatifs, soit pré-recouverts avec des peptides synthétiques (PF 11 à PF 18), soit en utilisant nef, la caséine ou un mélange de peptides PF 12 et PF 17. Les sérums ont été sélectionnés au hasard parmi des sérums anti-nef positifs et anti-nefs négatifs testés par la méthode RIA en utilisant ¹²⁵I nef. L'intensité de l'immunoradioactivité est notée "-" pour une densité optique (OD) inférieure à 0,2; "+" pour OD = 0,2 à 0,4; "++" pour OD = 0,4 à 0,8 et "+++" pour OD = 0,8 à 2,0.

Row | Sequence | intensité de l'immunoréactivité (OD), Serum 1 (anticorps anti-nef) | intensité de l'immunoréactivité (OD), Serum 2 (anticorps anti-nef) | intensité de l'immunoréactivité (OD), Serum 3 (anticorps anti-nef) | intensité de l'immunoréactivité (OD), Serum 4 (anticorps anti-nef) | intensité de l'immunoréactivité (OD), Serum 5 (anticorps anti-nef) | intensité de l'immunoréactivité (OD), Serum 6 (anticorps anti-nef) | intensité de l'immunoréactivité (OD), Serum 7 (anticorps anti-nef) | intensité de l'immunoréactivité (OD), Serum 8 (anticorps anti-nef) | intensité de l'immunoréactivité (OD), Serum 9 (anticorps anti-nef) | intensité de l'immunoréactivité (OD), Serum 10 (anticorps anti-nef) | intensité de l'immunoréactivité (OD), Serum 11 (anticorps anti-nef) | intensité de l'immunoréactivité (OD), Serum 12 (anticorps anti-nef) | intensité de l'immunoréactivité (OD), Serum 13 (anticorps anti-nef) | intensité de l'immunoréactivité (OD), Serum 14 (anticorps anti-nef) | intensité de l'immunoréactivité (OD), Serum 15 (anticorps anti-nef) | intensité de l'immunoréactivité (OD), Serum 16 (anticorps anti-nef) | intensité de l'immunoréactivité (OD), Serum 17 (anticorps anti-nef) | intensité de l'immunoréactivité (OD), Serum 18 (anticorps anti-nef) | intensité de l'immunoréactivité (OD), Serum 19 (anticorps anti-nef) | intensité de l'immunoréactivité (OD), Serum 20 (anticorps anti-nef) | also measured
1 | XASRDLEKHGAITSSNTAATNAACAWLEAQEEEEZ [PF13] | + (pour OD = 0,2 à 0,4) | - (pour une densité optique (OD) inférieure à 0,2) | +++ (pour OD = 0,8 à 2,0) | + (pour OD = 0,2 à 0,4) | - (pour une densité optique (OD) inférieure à 0,2) | - (pour une densité optique (OD) inférieure à 0,2) | ++ (pour OD = 0,4 à 0,8) | ++ (pour OD = 0,4 à 0,8) | ++ (pour OD = 0,4 à 0,8) | - (pour une densité optique (OD) inférieure à 0,2) | - (pour une densité optique (OD) inférieure à 0,2) | - (pour une densité optique (OD) inférieure à 0,2) | - (pour une densité optique (OD) inférieure à 0,2) | ++ (pour OD = 0,4 à 0,8) | - (pour une densité optique (OD) inférieure à 0,2) | - (pour une densité optique (OD) inférieure à 0,2) | - (pour une densité optique (OD) inférieure à 0,2) | - (pour une densité optique (OD) inférieure à 0,2) | - (pour une densité optique (OD) inférieure à 0,2) | - (pour une densité optique (OD) inférieure à 0,2) | réaction avec sérum 1545 1/200, 10µl ([1]; serum 1545 diluted 1/200, spot 10µl of peptide at 2 mg/ml): tr; réaction avec sérum CHA 1/300, 1µl ([1]; serum CHA diluted 1/300, spot 1µl of peptide at 2 mg/ml): tr; réaction avec sérum CHA 1/300, 2µl ([1]; serum CHA diluted 1/300, spot 2µl of peptide at 2 mg/ml): tr; intensité de l'immunoréactivité (OD), Serum 21 (anticorps anti-nef): - (pour une densité optique (OD) inférieure à 0,2); intensité de l'immunoréactivité (OD), Serum 22 (anticorps anti-nef): - (pour une densité optique (OD) inférieure à 0,2); intensité de l'immunoréactivité (OD), Serum 23 (anticorps anti-nef): - (pour une densité optique (OD) inférieure à 0,2); intensité de l'immunoréactivité (OD), Serum 24 (anticorps anti-nef): - (pour une densité optique (OD) inférieure à 0,2); intensité de l'immunoréactivité (OD), Serum 25 (anticorps anti-nef): - (pour une densité optique (OD) inférieure à 0,2); intensité de l'immunoréactivité (OD), Serum 26 (anticorps anti-nef): - (pour une densité optique (OD) inférieure à 0,2); intensité de l'immunoréactivité (OD), Serum 27 (anticorps anti-nef): - (pour une densité optique (OD) inférieure à 0,2); intensité de l'immunoréactivité (OD), Serum 28 (anticorps anti-nef): - (pour une densité optique (OD) inférieure à 0,2); intensité de l'immunoréactivité (OD), Serum 29 (anticorps anti-nef): ++ (pour OD = 0,4 à 0,8); intensité de l'immunoréactivité (OD), Serum 30 (anticorps anti-nef): - (pour une densité optique (OD) inférieure à 0,2); intensité de l'immunoréactivité (OD), Serum 31 (anticorps anti-nef): - (pour une densité optique (OD) inférieure à 0,2); intensité de l'immunoréactivité (OD), Serum 32 (anticorps anti-nef): - (pour une densité optique (OD) inférieure à 0,2); intensité de l'immunoréactivité (OD), Serum 33 (anticorps anti-nef): - (pour une densité optique (OD) inférieure à 0,2)
2 | XCRGGLEGMFYSERRHKILNIYLEKEEGIIADZ [PF19] | – | – | – | – | – | – | – | – | – | – | – | – | – | – | – | – | – | – | – | – | réaction avec sérum CHA 1/300, 5µl ([1]; serum CHA diluted 1/300, spot 5µl of peptide at 2 mg/ml): ++; réaction avec sérum CHA 1/300, 10µl ([1]; serum CHA diluted 1/300, spot 10µl of peptide at 2 mg/ml): ++; réaction avec sérum LOM 1/100, 5µl ([1]; serum LOM diluted 1/100 (column outside the heading of positive sera), spot 5µl of peptide at 2 mg/ml): tr; réaction avec sérum LOM 1/100, 10µl ([1]; serum LOM diluted 1/100 (column outside the heading of positive sera), spot 10µl of peptide at 2 mg/ml): tr; réaction avec sérum P.6. 1/200, 5µl ([1]; serum P.6. diluted 1/200, spot 5µl of peptide at 2 mg/ml): tr
3 | XGGKWSKSSVVGWPTVRERMRRAEPAADGVGAYCZ [PF11] | - (pour une densité optique (OD) inférieure à 0,2) | - (pour une densité optique (OD) inférieure à 0,2) | - (pour une densité optique (OD) inférieure à 0,2) | - (pour une densité optique (OD) inférieure à 0,2) | - (pour une densité optique (OD) inférieure à 0,2) | - (pour une densité optique (OD) inférieure à 0,2) | ++ (pour OD = 0,4 à 0,8) | - (pour une densité optique (OD) inférieure à 0,2) | - (pour une densité optique (OD) inférieure à 0,2) | - (pour une densité optique (OD) inférieure à 0,2) | ++ (pour OD = 0,4 à 0,8) | + (pour OD = 0,2 à 0,4) | - (pour une densité optique (OD) inférieure à 0,2) | - (pour une densité optique (OD) inférieure à 0,2) | - (pour une densité optique (OD) inférieure à 0,2) | - (pour une densité optique (OD) inférieure à 0,2) | - (pour une densité optique (OD) inférieure à 0,2) | - (pour une densité optique (OD) inférieure à 0,2) | +++ (pour OD = 0,8 à 2,0) | - (pour une densité optique (OD) inférieure à 0,2) | intensité de l'immunoréactivité (OD), Serum 21 (anticorps anti-nef): + (pour OD = 0,2 à 0,4); intensité de l'immunoréactivité (OD), Serum 22 (anticorps anti-nef): - (pour une densité optique (OD) inférieure à 0,2); intensité de l'immunoréactivité (OD), Serum 23 (anticorps anti-nef): - (pour une densité optique (OD) inférieure à 0,2); intensité de l'immunoréactivité (OD), Serum 24 (anticorps anti-nef): - (pour une densité optique (OD) inférieure à 0,2); intensité de l'immunoréactivité (OD), Serum 25 (anticorps anti-nef): +++ (pour OD = 0,8 à 2,0); intensité de l'immunoréactivité (OD), Serum 26 (anticorps anti-nef): +++ (pour OD = 0,8 à 2,0); intensité de l'immunoréactivité (OD), Serum 27 (anticorps anti-nef): - (pour une densité optique (OD) inférieure à 0,2); intensité de l'immunoréactivité (OD), Serum 28 (anticorps anti-nef): + (pour OD = 0,2 à 0,4); intensité de l'immunoréactivité (OD), Serum 29 (anticorps anti-nef): + (pour OD = 0,2 à 0,4); intensité de l'immunoréactivité (OD), Serum 30 (anticorps anti-nef): - (pour une densité optique (OD) inférieure à 0,2); intensité de l'immunoréactivité (OD), Serum 31 (anticorps anti-nef): +++ (pour OD = 0,8 à 2,0); intensité de l'immunoréactivité (OD), Serum 32 (anticorps anti-nef): - (pour une densité optique (OD) inférieure à 0,2); intensité de l'immunoréactivité (OD), Serum 33 (anticorps anti-nef): - (pour une densité optique (OD) inférieure à 0,2)
